Where two headings read alike, the source gives them in different places.
Key:
[1] = Ferric reducing antioxidant power (FRAP) assay; details: 4 min, absorbance 595 nm; mean ± SEM, n = 3
Protocol: We performed the FRAP assay as described in [29]. We prepared the FRAP reagent by mixing 2.5 mL of TPTZ (2,4,6-tris(2-pyridyl)-s-triazine) solution (10 mM) in 40 mM HCl and 25 mL of FeCl3 solution (20 mM) in acetate buffer solution (300 mM, pH 3.6). Polyphenolics 7–11 were added to 3 mL of FRAP reagent at concentrations from 6 to 34 µM. The mixture was kept in the dark at room temperature for 4 min. Then, we measured the absorbance at 595 nm using a Shimadzu UV 1240 spectrophotometer. Equation (2) was used to calculate the FRAP values for polyphenolic compounds 7–11:(2) FRAP=CFe/Cx where CFe is the concentration of Fe^2+ (µM) formed in the reaction; CX is the concentration of polyphenolic compounds in the reacting mixture.
The concentration of Fe^2+ (µM) formed in the reaction was determined using the calibration curve obtained for different concentrations of FeSO4·7H2O.

[2] = DPPH radical-scavenging effect; details: 30 min; DPPH• 10^−4 M in MeOH; mean ± SEM, n = 3; read-out: DPPH-Scavenging Effect SC50
Protocol: The 2,2-diphenyl-1-picrylhydrazyl (DPPH^•) radical-scavenging effect of polyphenolic compounds 7–11 was determined as described in [24]. Polyphenolic compounds 7, 8, 9, 10, and 11 were added to DPPH^• solution in MeOH (10^−4 M) at concentrations from 6 to 34 µM. The reacting mixture was kept in the dark for 30 min at room temperature. Then, we measured the absorbance at 517 nm using a Shimadzu UV 1240 spectrophotometer (Shimadzu, Kyoto, Japan). Equation (1) was used to calculate the DPPH^• radical-scavenging effect (%):(1) DPPH^• scavenging effect,%=A0−Ax/A0 where A0 is the absorbance of DPPH^• solution of a blank sample (without polyphenolic compounds); AX is the absorbance of DPPH^• solution in the presence of different concentrations of polyphenolic compounds.
Quercetin was used as a reference compound. All experiments were performed in triplicate. We calculated the half-maximal scavenging concentration (SC50) for polyphenolic compounds by plotting the DPPH^• scavenging effect (%) against the concentrations of polyphenolic compounds. SC50 values are given as the mean value ± SEM.

[3] = system: neuronal HT22 cells; design: method as in PMID 33397834; details: cited from earlier work; for Neuroprotective effect against glutamate-induced neurotoxicity: HT22 cells
[4] = Cytotoxicity, MTT assay; assay type: cell-based, murine; details: mouse, Neuro-2a neuroblastoma cells, read-out: Cytotoxic activity EC50
Protocol: The murine neuroblastoma cell line Neuro-2a (CCL-131) was purchased from American Type Culture Collection (ATCC®) (Manassas, VA, USA). Cells were cultured in Dulbecco’s Modified Eagle Medium (Biolot, St. Petersburg, Russia). The medium contained 10% fetal bovine serum (Biolot, St. Petersburg, Russia) and 1% penicillin/streptomycin (Biolot, St. Petersburg, Russia). Cells were incubated at 37 °C in a humidified atmosphere containing 5% (v/v) CO2.
Stock solutions of polyphenolic compounds were prepared in DMSO at a concentration of 10 mM. […]
We incubated Neuro-2a cells (1 × 10^4 cells/well) at 37 °C in a CO2 incubator for 24 h until they formed an adherent monolayer. Then, 20 μL of the tested solution was loaded onto the cells and incubated for 24 h. After incubation, the medium containing the polyphenolic test compounds was replaced by 100 μL of fresh medium. Then, we added 10 μL of MTT (3-(4,5-dimethylthiazol-2-yl)-2,5-diphenyltetrazolium bromide) (Sigma-Aldrich, St. Louis, MO, USA) stock solution (5 mg/mL) to each well and incubated the microplate for 4 h. Then, 100 μL of SDS-HCl solution (1 g SDS/10 mL dH2O/17 μL 6 M HCl) was added to each well, followed by incubation for 18 h. We measured the absorbance of the converted dye formazan on a Multiskan FC microplate photometer (Thermo Scientific, Waltham, MA, USA) at a wavelength of 570 nm. We performed all experiments in triplicate and expressed the cytotoxic activity as percent of living cells.

[5] = design: method as in PMID 31004693; details: 30 min; mean ± SEM, n = 3; previously published; read-out: DPPH-Scavenging Effect SC50; cited from earlier work
[6] = system: PQ-treated Neuro-2a cells; experiment: PQ-induced neurotoxicity, cell viability (MTT); assay type: cell-based, murine; details: PQ 1 mM; for Effect on percentage of living cells after treatment with PQ: compounds 0.01–10 μM, 1 h pre-treatment, MTT after 24 h; for Increase in percentage of living cells after treatment with PQ: MTT
Protocol: (§1) After 24 h of adhesion, Neuro-2a cells (1 × 10^4 cells/well) were treated with polyphenolic compounds at concentrations of 0.01–10 μM for 1 h. Subsequently, 1 mM of PQ, 10 μM rotenone or 80 μM of 6-OHDA (Sigma-Aldrich, St. Louis, MO, USA) were added. We used MTT assay to determine the percentage of living cells (cell viability) after 24 h of incubation. Cells incubated without inductors or with inductors were used as positive and negative control, respectively. The results are presented as percentages of the positive control value.

[7] = design: method as in PMID 31004693; details: mean ± SEM, n = 3; previously published; cited from earlier work
[8] = system: 6-OHDA-treated Neuro-2a cells; experiment: 6-OHDA-induced neurotoxicity, cell viability (MTT); assay type: cell-based, murine; details: 6-OHDA 80 µM, p < 0.05
Protocol: as §1

[9] = system: 6-OHDA-treated Neuro-2a cells; experiment: ROS level in 6-OHDA-treated cells (H2DCF-DA); assay type: cell-based, murine; details: 6-OHDA 80 µM; for Effect on ROS levels in 6-OHDA-treated cells: 1 h, H2DCF-DA
Protocol: After 24 h of adhesion, Neuro-2a cells (1 × 10^4 cells/well) were incubated with compounds (0.01–10 µM) for 1 h. Then, we added rotenone (10 μM), 6-OHDA (80 μM), or PQ (1 mM) to each well and incubated cells for 1 h, 1 h, or 3 h, respectively. To evaluate the level of intracellular ROS, we added 20 µL of 2,7-dichlorodihydrofluorescein diacetate solution ([…], H2DCF-DA, Molecular Probes, Eugene, OR, USA) to each well, so that the final concentration was 10 µM, and incubated the microplate at 37 °C for an additional 30 min. Quercetin was used as a reference compound.

[10] = system: MAO-A; design: method as in PMID 27575476, PMID 32087226; details: cited from earlier work
[11] = system: MAO-B; design: method as in PMID 27575476, PMID 32087226; details: cited from earlier work
[12] = system: PQ-treated Neuro-2a cells; experiment: Mitochondrial membrane potential (TMRM) in PQ-treated cells; assay type: cell-based, murine; details: for Increase in mitochondrial membrane potential: compound 10 µM, PQ-treated Neuro-2a, TMRM
Protocol: The cells were incubated for 1 h in a 96-well plate (1 × 10^4 cells/well) with polyphenolic compounds (1 and 10 µM). Then, PQ (500 µM) was added, and the cell suspension was incubated for 1 h. Cells incubated without PQ and compounds were used as positive control, and cells with PQ alone were used as negative control. We added the tetramethylrhodamine methyl (TMRM) (Sigma-Aldrich, St. Louis, MO, USA) solution (500 nM) to each well, and incubated cells for 30 min at 37 °C. After the incubation, we measured the intensity of fluorescence with a PHERAstar FSplate reader (BMG Labtech, Ortenberg, Germany) at λex = 540 nm and λem = 590 nm. We processed the data using MARS Data Analysis v3.01R2 (BMG Labtech, Ortenberg, Germany) and presented results as percentages of the positive control value.

O=c1c(O)c(-c2ccc(O)c(O)c2)oc2cc(O)cc(O)c12 [Quercetin, reference compound]
FRAP [1]: 5.11 ± 0.31 mol (Fe^2+)/mol (polyphenolic compound X)
EC50 [2]: 8.9 ± 0.2 µM

COc1c(CC=C(C)C)c(O)cc2c1C1Oc3c(ccc(O)c3CC=C(C)C)C1CO2 (centres unmarked) [1-methoxyerythrabyssin II]
Neuroprotective effect against glutamate-induced neurotoxicity [3]: significant neuroprotective effects

CC(C)=CCC/C(C)=C/Cc1c(O)c(O)cc2c1O[C@H]1c3ccc(O)cc3OC[C@@H]21 [Compound 1, (6aR,11aR)-6a,11a-dihydrolespedezol A2]
EC50 at 24 h [4]: 72 µM
EC50 [5]: 24.3 ± 3.7 µM
Effect on percentage of living cells after treatment with PQ [6]: did not exhibit any effect
FRAP [7]: 1.78 ± 0.16 mol (Fe^2+)/mol (polyphenolic compound X)

2-geranyl-1-methoxylespeflorin G11
Neuroprotective effect against glutamate-induced neurotoxicity [3]: significant neuroprotective effects
Apoptosis in HT22 cells ([3]; by inhibiting intracellular ROS generation and mitochondrial dysfunction): attenuate

CC(C)=CCC/C(C)=C/Cc1c(O)c(C(=O)c2c(-c3ccc(O)cc3O)oc3c(C/C=C(\C)CCC=C(C)C)c(O)c(O)cc23)cc2c1OC1c3cc(CC=C(C)C)c(O)cc3OCC21 (centres unmarked) [Compound 8, lespebicolin B]
FRAP [1]: 1.95 ± 0.19 mol (Fe^2+)/mol (polyphenolic compound X)
EC50 [2]: 26.7 ± 3.8 µM
EC50 at 24 h [4]: > 100 µM
Effect on percentage of living cells after treatment with PQ [6]: significantly increased
Increase in percentage of living cells after treatment with PQ ([6]; compound 1 and 10 μM): 8–10%

COc1cc2c(cc1O)OC1c3c(OC)cc(O)c(C/C=C(\C)CCC=C(C)C)c3OCC21 (centres unmarked) [8-methoxybicolosin C]
Neuroprotective effect against glutamate-induced neurotoxicity [3]: significant neuroprotective effects

O=C1O[C@H]([C@@H](O)CO)C(O)=C1O [Ascorbic acid, reference compound]
FRAP [1]: 3.43 ± 0.33 mol (Fe^2+)/mol (polyphenolic compound X)
EC50 [2]: 30.5 ± 2.1 µM

CC(C)=CCC/C(C)=C/Cc1c(O)c(O)cc(C(=O)C(=O)c2cc(CC=C(C)C)c(O)cc2O)c1O [Compound 11, 5′-isoprenylbicoloketone]
FRAP [1]: 1.45 ± 0.08 mol (Fe^2+)/mol (polyphenolic compound X)
EC50 [2]: 19.4 ± 2.2 µM
EC50 at 24 h [4]: 87 µM

2-geranylbicolosin A
Neuroprotective effect against glutamate-induced neurotoxicity [3]: significant neuroprotective effects

CC(C)=CCC/C(C)=C/Cc1c(O)c(O)cc2c1oc1c3ccc(O)cc3oc(=O)c21 [Compound 7, lespedezol A6]
FRAP [1]: 1.83 ± 0.16 mol (Fe^2+)/mol (polyphenolic compound X)
EC50 [2]: 25.7 ± 3.4 µM
EC50 at 24 h [4]: > 100 µM

CC(C)=CCC[C@@]1(C)C=Cc2c(c(O)cc3c2O[C@H]2c4ccc(O)cc4OC[C@@H]32)O1 [Compound 2, (6aR,11aR,3′S)-6a,11a-dihydrolespedezol A3]
Increase in percentage of living cells after 6-OHDA treatment versus 6-OHDA-treated cells [8]: 8.7%
Decrease of ROS level compared to 6-OHDA-treated cells [9]: 4.5 times
Effect on ROS levels in 6-OHDA-treated cells [9]: significantly decreased
EC50 at 24 h [4]: 75 µM
EC50 [5]: 25 ± 2.2 µM
Effect on percentage of living cells after treatment with PQ [6]: did not exhibit any effect
FRAP [7]: 1.31 ± 0.02 mol (Fe^2+)/mol (polyphenolic compound X)

COc1ccc2c(c1O)OC[C@H]1c3cc4c(cc3O[C@@H]21)OCO4 [(–)-4-hydroxy-3-methoxy-8,9-methylenedioxypterocarpan]
Inhibition of MAO-A [10]: effectively inhibit
Inhibition of MAO-B [11]: effectively inhibit

C[n+]1ccc(-c2cc[n+](C)cc2)cc1 [PQ, paraquat, reference compound]
Decrease in TMRM fluorescence ([12]; 1 h exposure of Neuro-2a cells with PQ alone): 23%

COc1cc(O)cc2c1C1Oc3c(ccc(O)c3CC=C(C)C)C1CO2 (centres unmarked) [1-methoxylespeflorin G11]
Neuroprotective effect against glutamate-induced neurotoxicity [3]: significant neuroprotective effects

medicarpin
Inhibition of MAO-A [10]: did not effectively inhibit
Inhibition of MAO-B [11]: selectively inhibited

CC(C)=CCC/C(C)=C/Cc1c(O)c(O)cc(C(=O)C(=O)c2ccc(O)cc2O)c1O [Compound 5, bicoloketone]
Increase in mitochondrial membrane potential [12]: 23%
EC50 at 24 h [4]: 100 µM
EC50 [5]: 26.1 ± 3 µM
Effect on percentage of living cells after treatment with PQ [6]: significantly increased
Increase in percentage of living cells after treatment with PQ ([6]; compound 1 and 10 μM): 8–10%
FRAP [7]: 0.86 ± 0.04 mol (Fe^2+)/mol (polyphenolic compound X)

CC(C)=CCC[C@]1(C)C=Cc2c(c(O)cc3c2O[C@H]2c4ccc(O)cc4OC[C@@H]32)O1 [Compound 3, 6aR,11aR,3′R-6a,11a-dihydrolespedezol A3]
Increase in mitochondrial membrane potential [12]: 16%
Increase in percentage of living cells after 6-OHDA treatment versus 6-OHDA-treated cells [8]: 12.9%
Decrease of ROS level compared to 6-OHDA-treated cells [9]: 4.5 times
Effect on ROS levels in 6-OHDA-treated cells [9]: significantly decreased
EC50 at 24 h [4]: 44 µM
EC50 [5]: 23.7 ± 2.1 µM
Effect on percentage of living cells after treatment with PQ [6]: significantly increased
Increase in percentage of living cells after treatment with PQ ([6]; compound 10 μM): 8%
FRAP [7]: 1.60 ± 0.08 mol (Fe^2+)/mol (polyphenolic compound X)

COc1c(CC=C(C)C)c(O)cc2c1[C@@H]1Oc3c(cc(C)c(O)c3CC=C(C)C)[C@@H]1CO2 [bicolosin A]
Neuroprotective effect against glutamate-induced neurotoxicity [3]: significant neuroprotective effects

From paper PMC9025851, “Polyphenolic Compounds from Lespedeza bicolor Protect Neuronal Cells from Oxidative Stress” (Antioxidants, 2022)
